ChEMBL document CHEMBL1128100, “Synthesis and evaluation of novel daunomycin-phosphate-sulfate --glucuronide and --glucoside prodrugs for application in adept” (Bioorg Med Chem Lett, 1995)
Where a name gives a salt, the structure may show the parent alone.

Tests used:
[1] = test system: beta-glucosidase; experiment: Compound was tested for enzyme activation with 0.3 U/mL beta-glucosidase by measuring its half-life; conditions: beta-glucosidase (isolated enzyme)
[2] = test system: EVSA-T; experiment: Antiproliferative activity of compound was tested against mammary carcinoma (EVSAT) human tumor cells; format: functional, cell-based
[3] = test system: IGROV-1; experiment: Antiproliferative activity of compound was tested against ovarian carcinoma (IGROV) human tumor cells; format: functional, cell-based
[4] = test system: M19-MEL; experiment: Antiproliferative activity of compound was tested against melanoma (M-19) human tumor cells; format: functional, cell-based
[5] = test system: MCF7; experiment: Antiproliferative activity of compound was tested against mammary carcinoma (MCF-7) human tumor cells; format: functional, cell-based
[6] = test system: WiDr; experiment: Antiproliferative activity of compound was tested against colon carcinoma (WiDr) human tumor cells; format: functional, cell-based
[7] = test system: A498; experiment: Antiproliferative activity of compound was tested against renal cancer (A-498) human tumor cells; format: functional, cell-based
[8] = test system: A204; experiment: Antiproliferative activity of compound was tested against rhabdomyosarcoma (A-204) human tumor cells; format: functional, cell-based
[9] = test system: IGR-37 cell line; experiment: Antiproliferative activity of compound was tested against melanoma (IgR-37) human tumor cells; format: functional, cell-based
[10] = test system: T-24; experiment: Antiproliferative activity of compound was tested against bladder carcinoma (T-24) human tumor cells; format: functional, cell-based
[11] = test system: beta-glucuronidase; experiment: Compound was tested for enzyme activation with 0.03 U/mL beta-glucuronidase by measuring its half-life; conditions: beta-glucuronidase (isolated enzyme)

Structure (SMILES) | IC50 [8] [µM] | IC50 [9] [µM] | IC50 ([5]; Homo sapiens, MCF7) [µM] | IC50 ([6]; Homo sapiens, WiDr) [µM] | IC50 [10] [µM] | further results
COc1cccc2c1C(=O)c1c(O)c3c(c(O)c1C2=O)C[C@@](O)(C(C)=O)C[C@@H]3O[C@H]1C[C@@H](NC(=O)O[C@@H]2O[C@@H](C(=O)O)[C@@H](O)[C@H](O)[C@@H]2O)[C@H](O)[C@H](C)O1 | – | – | – | – | – | half-life [1]: > 133 h; IC50 ([2]; evsa-t): 280 µM; IC50 ([3]; igrov-1): 520 µM; IC50 ([4]; m19-mel): 200 µM; IC50 ([5]; mcf7): 125 µM; IC50 ([6]; widr): 370 µM; IC50 ([7]; a498): 250 µM
COc1cccc2c1C(=O)c1c(O)c3c(c(O)c1C2=O)C[C@@](O)(C(C)=O)C[C@@H]3O[C@H]1C[C@H](N)[C@H](O)[C@H](C)O1 [DAUNORUBICIN HYDROCHLORIDE] | 3 | 11 | 2 | 7 | 2 | IC50 ([2]; Homo sapiens, EVSA-T): 2 µM; IC50 ([3]; Homo sapiens, IGROV-1): 18 µM; IC50 ([4]; Homo sapiens, M19-MEL): 2 µM; IC50 ([7]; Homo sapiens, A498): 3 µM
COc1cccc2c1C(=O)c1c(O)c3c(c(O)c1C2=O)C[C@@](O)(C(C)=O)C[C@@H]3O[C@H]1C[C@@H](N)[C@H](OP(=O)(O)O)[C@H](C)O1 | 17 | 45 | 89 | 58 | 3 | –
COc1cccc2c1C(=O)c1c(O)c3c(c(O)c1C2=O)C[C@@](O)(C(C)=O)C[C@@H]3O[C@H]1C[C@@H](N)[C@H](OS(=O)(=O)O)[C@H](C)O1 | 1.3 | 3000 | 870 | – | 5500 | –
COc1cccc2c1C(=O)c1c(O)c3c(c(O)c1C2=O)C[C@@](O)(C(C)=O)C[C@@H]3O[C@H]1C[C@@H](NC(=O)O[C@@H]2O[C@@H](C(=O)[O-])[C@@H](O)[C@H](O)[C@@H]2O)[C@H](O)[C@H](C)O1.[Na+] | – | – | – | – | – | half-life [11]: 137 h; IC50 ([2]; evsa-t): 13500 µM; IC50 ([3]; igrov-1): 36900 µM; IC50 ([4]; m19-mel): 15800 µM; IC50 ([5]; mcf7): 11200 µM; IC50 ([7]; a498): 12100 µM
COc1cccc2c1C(=O)c1c(O)c3c(c(O)c1C2=O)C[C@@](O)(C(C)=O)C[C@@H]3O[C@H]1C[C@@H](NP(=O)(O)O)[C@H](O)[C@H](C)O1 | 17 | 96 | 370 | 10 | 2 | –
COc1cccc2c1C(=O)c1c(O)c3c(c(O)c1C2=O)C[C@@](O)(C(C)=O)C[C@@H]3O[C@H]1C[C@@H](NS(=O)(=O)O)[C@H](O)[C@H](C)O1 | 4.9 | – | 10400 | – | – | –
